From BigSolDB 2.1

O=c1[nH]c2ccccc2n1CCCN1CCC(n2c(=O)[nH]c3cc(Cl)ccc32)CC1
solubility (mole fraction)
Details | 278.15 K | 283.15 K | 288.15 K | 293.15 K | 298.15 K | 303.15 K | 308.15 K | 313.15 K | 318.15 K
in DMAc | 0.000805 | 0.000971 | 0.00116 | 0.00136 | 0.00158 | 0.00182 | 0.00208 | 0.00234 | 0.00262
in DMF | 7.44e-05 | 9.91e-05 | 0.000131 | 0.00017 | 0.000223 | 0.000282 | 0.000369 | 0.000471 | 0.000575
in DMSO | 0.000283 | 0.00034 | 0.000408 | 0.000489 | 0.000584 | 0.000698 | 0.000832 | 0.00099 | 0.00118
in acetonitrile | 1.2e-07 | 1.85e-07 | 2.54e-07 | 3.43e-07 | 4.6e-07 | 6.68e-07 | 8.73e-07 | 1.07e-06 | 1.46e-06
in ethanol | 8.55e-06 | 1.09e-05 | 1.47e-05 | 1.86e-05 | 2.28e-05 | 2.93e-05 | 3.6e-05 | 4.53e-05 | 5.35e-05
in ethylene glycol | 1.11e-05 | 1.43e-05 | 1.84e-05 | 2.21e-05 | 2.93e-05 | 3.47e-05 | 4.43e-05 | 5.56e-05 | 6.6e-05
in isobutanol | 1.05e-05 | 1.35e-05 | 1.8e-05 | 2.23e-05 | 2.83e-05 | 3.67e-05 | 4.58e-05 | 5.68e-05 | 7.17e-05
in isopropanol | 7.95e-06 | 9.92e-06 | 1.45e-05 | 1.84e-05 | 2.27e-05 | 2.74e-05 | 3.45e-05 | 4.33e-05 | 5.42e-05
in methanol | 8.19e-06 | 9.89e-06 | 1.21e-05 | 1.6e-05 | 2.07e-05 | 2.56e-05 | 3.17e-05 | 4.03e-05 | 4.9e-05
in n-butanol | 1.23e-05 | 1.64e-05 | 2.19e-05 | 2.85e-05 | 3.66e-05 | 4.45e-05 | 5.47e-05 | 7.02e-05 | 8.57e-05
in n-propanol | 1.18e-05 | 1.45e-05 | 1.9e-05 | 2.55e-05 | 3.25e-05 | 4.17e-05 | 5.05e-05 | 6.43e-05 | 7.85e-05
in water | 8.77e-08 | 1.05e-07 | 1.38e-07 | 1.75e-07 | 2.22e-07 | 2.76e-07 | 3.35e-07 | 4.16e-07 | 5.11e-07
